Patent US12358970B2, “Methods of exogenous drug activation of chemical-induced signaling complexes expressed in engineered cells in vitro and in vivo” (Seattle Children's Hospital, priority 2016, dated 2025)
“Also recorded” adds a separate entry of the source.

What was measured:
[1] = test system: IL2R-CISC expressing primary human T-cells; assay: Selective enrichment of IL2R-CISC expressing T cells, flow cytometry of cis-linked GFP/mCherry marker; format: cell-based; conditions: for mCherry positive cells: IL2R-CISC V3 cells, by 15 days culture in the ligand, starting transduced population 64% mCherry positive
Description: Each architecture of IL2R-CISC (i.e. 1210, 1211, and 1233) was cis-linked together with GFP using 2A sequences, and placed under the control of an MND promoter in a lentiviral expression cassette (as schematized in FIG. 5, bottom). Lentiviral particles from each IL2R-CISC architecture were generated and used to transduce primary human T-cells.
Lentiviral particles from each IL2R-CISC architecture were generated and used to transduce primary human T-cells. CD4+ T cells were activated for 60 hours. […] Lentivirus was transduced with or without beads, using 15 μL of IL2R-CISC and 3 μL of MND-GFP control with protamine sulfate at 4 μg/mL (0.5 mL medium) in a 24-well dish. The cells were then spinoculated at 800 g for 30 minutes at 33° C. followed by the addition of 1.5 mL medium after 4 hours of incubation. […] The GFP signal was determined and the IL2R-CISC level of transduced T cells was determined.
The T cell viability was determined and the expression of GFP+ population and IL2R-CISC expression was determined by using anti-FRB antibody and a secondary APC antibody.

[2] = test system: IL2R-CISC V3 expressing human CD4+ T cells; assay: Expansion of IL2R-CISC expressing cells in culture (cell numbers); format: cell-based; conditions: for Dose inducing the most robust cell expansion / Cell expansion: 30 days
[3] = test system: gene targeted CD4+ T cells expressing GFP-FOXP3 and IL2R-CISC V3; assay: Targeted knock-in of MND promoter and CISC into FOXP3 locus, enrichment of gene targeted cells (GFP-FOXP3 flow cytometry); format: cell-based; conditions: 15 days culture; 10 nM ligand
Description: The described targeting approach integrates a promoter and both components of an IL2R-CISC V3 into the FOXP3 locus in line with a GFP fusion to the native FOXP3 gene. This architecture is intended to allow for ligand-induced selection of cells which have undergone an accurate gene targeting event.
FIG. 26 depicts a schematic diagram showing an experimental design of targeted knock-in of MND promoter and CISC. This represents an experimental schematic of how a CRISP/Cas9 nuclease is used to induce targeted integration of the cassettes from FIG. 25 into the FOXP3 locus, followed by expansion of the gene targeted cells in the indicated IL2R-CISC ligand.
Following targeted integration into the FOXP3 locus utilizing the indicated approaches (no targeting, or RNP plus each of the cassettes described in FIG. 25), cells were cultured in the indicated conditions for 15 days, and then analyzed by flow cytometry for GFP-FOXP3 expression. […] Flow panels are representative of IL2R-CISC GFP-FOXP3 expression by cells cultured in rapamycin.
Following targeted integration into the FOXP3 locus utilizing the indicated approaches, cells were cultured in the indicated conditions for 15 days, and then analyzed by flow cytometry for GFP-FOXP3 expression.
In addition, the targeted knock-in of MND promoter and CISC was tested to enrich and/or expand gene targeted T cells. […]

[4] = test system: STAT5 phosphorylation in IL2R-CISC expressing T cells; assay: phospho-STAT5 signaling after 20 days of culture; format: cell-based, human; conditions: mock, GFP and IL2R-CISC cell types
[5] = test system: Akt activation in IL2R-CISC human CD4+ T cells; assay: Western blot for Akt activation; format: cell-based; conditions: 15 days rapamycin 1 nM, 48 h cytokine starvation, stimulation with rapamycin 100 nM for 20 minutes
Description: IL2R-CISC human CD4+ T cells were analyzed following 15 days of rapamycin treatment at 1 nM, following by cytokine starvation for 48 hours.

CO[C@H]1[C@@H](O)[C@H](C)C[C@H](C)/C=C/C=C/C=C(\C)[C@@H](c2c[nH]c3c(C)cccc23)C[C@@H]2CC[C@@H](C)[C@@](O)(O2)C(=O)C(=O)N2CCCC[C@H]2C(=O)O[C@H]([C@H](C)C[C@@H]2CC[C@@H](O)[C@H](OC)C2)C[C@H](O)[C@H](C)/C=C(\C)[C@H]1O [AP21967, C-16-(S)-7-methylindolerapamycin]
mCherry positive cells [1]: > 93% | CD4+ T cell survival ([1]; IL2R-CISC V3 construct, in response to AP21967 (FIG. 15)): promotes human CD4+ T cell survival | Dose inducing the most robust cell expansion ([2]; 100 nM AP21967 (vs 10 nM)): most robust cell expansion | Cell expansion ([2]; AP21967 10 nM and 100 nM): promotes CD4+ T cell proliferation; also recorded: significant AP21967-induced expansion | Enrichment of FOXP3 expressing (gene targeted) cells [3]: substantial enrichment of FOXP3 expressing cells

CO[C@H]1C[C@@H]2CC[C@@H](C)[C@@](O)(O2)C(=O)C(=O)N2CCCC[C@H]2C(=O)O[C@H]([C@H](C)C[C@@H]2CC[C@@H](O)[C@H](OC)C2)CC(=O)[C@H](C)/C=C(\C)[C@@H](O)[C@@H](OC)C(=O)[C@H](C)C[C@H](C)/C=C/C=C/C=C/1C [rapamycin, (3S,6R,7E,9R,10R,12R,14S,15E,17E,19E,21S,23S,26R,27R,34aS)-9,10,12,13,14,21,22,23,24,25,26,27,32,33,34,34a-hexadecahydro-9,27-dihydroxy-3-[(1R)-2-[(1S,3R,4R)-4-hydroxy-3-methoxycyclohexyl]-1-methylethyl]-10,21-dimethoxy-6,8,12,14,20,26-hexamethyl-23,27-epoxy-3H-pyrido[2,1-c][1,4] oxaazacyclohentriacontine-1,5,11,28,29 (4H,6H,31H)-pentone]
Enrichment for IL2R-CISC expression read out by cis-linked GFP marker ([1]; 1233 architecture, 4 days post transduction, 2 days in rapamycin alone (1 nM)): enriched for IL2R-CISC expression; also recorded: beginning to enrich for IL2R-CISC expression | Enrichment of the GFP marker ([1]; 1233 architecture, 6 days post transduction, 4 days in rapamycin): further enrichment of the GFP marker for 1233 | Enrichment of GFP+ cells ([1]; 1233 architecture, 9 days post transduction, 7 days in rapamycin): further enrichment of the 1233 GFP+ cells | Cells expressing the 1233 IL2R-CISC enriched to % of the cell population (GFP+) ([1]; 1233 architecture, 17 days post transduction, 15 days culture in rapamycin alone (1 nM)): 97% | mCherry positive cells [1]: > 93% | Expansion of mCherry positive cell numbers ([2]; 25 days): significant rapamycin-induced expansion | Dose inducing the most robust cell expansion ([2]; 1 nM rapamycin (vs 10 nM)): most robust cell expansion | Cell expansion ([2]; rapamycin 1 nM and 10 nM): significant rapamycin-induced expansion | Phosphorylation of STAT5 in response to treatment [4]: only IL2R-CISC expressing cells respond to rapamycin with phosphorylation of STAT5 | Akt activation [5]: Akt activation | Enrichment of FOXP3 expressing (gene targeted) cells [3]: substantial enrichment of FOXP3 expressing cells
